Assay results taken from article PMC1971528, “Pharmacokinetic studies with the antifolate C2-desamino-C2-methyl-N10-propargyl-2'-trifluoromethyl-5,8-dideazafolic acid (CB3988) in mice and rats using in vivo 19F-NMR spectroscopy” (British Journal of Cancer, 1990).
Where two headings read alike, the source gives them in different places.

What was measured:
[1] = mice, ref Newell et al., cited from earlier work
[2] = mice, 1986, cited from earlier work
[3] = qualitative statement, no reference given; cited from earlier work
[4] = design: method as in Alison et al., 1985; Newell et al., 1986; conditions: patients; ref Alison et al., 1985; Newell et al., 1986; cited from earlier work
thymidylate synthase = tested on: thymidylate synthase; design: method as in A.L. Jackman, unpublished results; conditions: ref A.L. Jackman, unpublished results; cited from earlier work
[5] = In vivo 19F-NMR spectroscopy of CB3988 in mice; conditions: 500 mg kg-1 i.v.
Excerpt: (§1) Br. J. Cancer (1990), 62, 766 772 ? Macmillan Press Ltd., 1990 Pharmacokinetic studies with the antifolate C2-desamino-C2-methyl-N10-propargyl-2'-trifluoromethyl-5,8-dideazafolic acid (CB3988) in mice and rats using in vivo '9F-NMR spectroscopy D.R. Newell', R.J. Maxwell2, G.M.F. Bisset', D.I. Jodrell' & J.R. Griffiths2 'Drug Development Section, Institute of Cancer Research, Sutton, Surrey SM2 SNG; and 2CRC Biomedical NMR Group, St George's Hospital Medical School, Tooting, London SW] 7 ORE, UK. Summary In vivo '9F-NMR spectroscopy has been used to study the pharmacokinetics of the experimental antifolate drug CB3988 (C2-desamino-C2-methyl-N'0-propargyl-2'trifluoromethyl-5,8-dideazafolic acid) in mice and rats. NMR results have been compared to those obtained by HPLC and the effect of the inclusion of the CF3 group evaluated by comparing the pharmacokinetics of CB3988 and ICI 198583 (C2-desamino-C2-methyl- N'?-propargyl-5,8-dideazafolic acid) in rats. In mice, following the administration of CB3988 (500 mg kg-' i.v.), drug could be detected in both the upper and the lower abdomen. […] Signal detected in the lower abdomen reached maximum intensity 60-90 min after treatment. […] When the pharmacokinetics of CB3988 and ICI 198583 were compared the only significant difference was in the alpha phase half life which was 2-fold faster for CB3988. […] This is in contrast to N'?-propargyl-5,8-dideazafolic acid, where delayed excretion is associated with hepatic and renal toxicities. The ability to study CB3988 pharmacokinetics non-invasively by '9F-NMR spectroscopy confirms the utility of the technique and, since '9F-NMR can be applied directly to clinical investigations, it may be possible to obtain similar information in humans. It is now accepted that pharmacokinetics are an important determinant of both the activity and toxicity of anticancer drugs (Newell, 1989). This acceptance has led to the inclusion of pharmacokinetic studies in both the preclinical and early clinical evaluation of the majority of novel antitumour agents with two broad aims in mind. Firstly, the studies may be of direct clinical relevance in determining dose escalation during phase I studies (Collins et al., 1986; EORTC PAM Group, 1987) and secondly the information gained may be of value in interpreting both the toxicity and activity of the com- pound. This latter information can in turn be used to develop either new drugs or drug schedules which maximise the therapeutic potential of the agent. In order to conduct pharmacokinetic studies it is necessary to have a method which can accurately and selectively measure levels of the drug and its metabolites in biological fluids and tissues. Ideally the method should allow studies on drug levels in tumour deposits and in sensitive normal tissues since these are more likely to correlate with activity and toxicity than are levels in plasma or urine. In the preclinical setting such measurements are usually performed using radio- chemicals and either autoradiographic or quantitative tissue distribution studies (Siddik & Newell, 1988). However, in patients ethical and clinical considerations restrict the use of radioactive tracers and routine sampling of tumour or nor- mal tissue is not practicable. […] Using physiological pharmaco- kinetic modelling it is possible to extract some tissue distribu- tion information from such data although there is always considerable uncertainty attached to the results because of interpatient variation. […]

[6] = Quantitative tissue distribution of CB3988 in mice by HPLC; format: in vivo; conditions: 500 mg kg-1 i.v.
Excerpt: Br. J. Cancer (1990), 62, 766 772 ? Macmillan Press Ltd., 1990 Pharmacokinetic studies with the antifolate C2-desamino-C2-methyl-N10-propargyl-2'-trifluoromethyl-5,8-dideazafolic acid (CB3988) in mice and rats using in vivo '9F-NMR spectroscopy D.R. Newell', R.J. Maxwell2, G.M.F. Bisset', D.I. Jodrell' & J.R. Griffiths2 'Drug Development Section, Institute of Cancer Research, Sutton, Surrey SM2 SNG; and 2CRC Biomedical NMR Group, St George's Hospital Medical School, Tooting, London SW] 7 ORE, UK. Summary In vivo '9F-NMR spectroscopy has been used to study the pharmacokinetics of the experimental antifolate drug CB3988 (C2-desamino-C2-methyl-N'0-propargyl-2'trifluoromethyl-5,8-dideazafolic acid) in mice and rats. NMR results have been compared to those obtained by HPLC and the effect of the inclusion of the CF3 group evaluated by comparing the pharmacokinetics of CB3988 and ICI 198583 (C2-desamino-C2-methyl- N'?-propargyl-5,8-dideazafolic acid) in rats. In mice, following the administration of CB3988 (500 mg kg-' i.v.), drug could be detected in both the upper and the lower abdomen. […] Signal detected in the lower abdomen reached maximum intensity 60-90 min after treatment. […] When the pharmacokinetics of CB3988 and ICI 198583 were compared the only significant difference was in the alpha phase half life which was 2-fold faster for CB3988. […] This is in contrast to N'?-propargyl-5,8-dideazafolic acid, where delayed excretion is associated with hepatic and renal toxicities. The ability to study CB3988 pharmacokinetics non-invasively by '9F-NMR spectroscopy confirms the utility of the technique and, since '9F-NMR can be applied directly to clinical investigations, it may be possible to obtain similar information in humans. It is now accepted that pharmacokinetics are an important determinant of both the activity and toxicity of anticancer drugs (Newell, 1989). This acceptance has led to the inclusion of pharmacokinetic studies in both the preclinical and early clinical evaluation of the majority of novel antitumour agents with two broad aims in mind. Firstly, the studies may be of direct clinical relevance in determining dose escalation during phase I studies (Collins et al., 1986; EORTC PAM Group, 1987) and secondly the information gained may be of value in interpreting both the toxicity and activity of the com- pound. This latter information can in turn be used to develop either new drugs or drug schedules which maximise the therapeutic potential of the agent. […] In the preclinical setting such measurements are usually performed using radio- chemicals and either autoradiographic or quantitative tissue distribution studies (Siddik & Newell, 1988). […]

[7] = cited from earlier work
Acute toxicity in rats = format: in vivo; conditions: 100 mg kg-1 i.v.
Excerpt: (§2) Br. J. Cancer (1990), 62, 766 772 ? Macmillan Press Ltd., 1990 Pharmacokinetic studies with the antifolate C2-desamino-C2-methyl-N10-propargyl-2'-trifluoromethyl-5,8-dideazafolic acid (CB3988) in mice and rats using in vivo '9F-NMR spectroscopy D.R. Newell', R.J. Maxwell2, G.M.F. Bisset', D.I. Jodrell' & J.R. Griffiths2 'Drug Development Section, Institute of Cancer Research, Sutton, Surrey SM2 SNG; and 2CRC Biomedical NMR Group, St George's Hospital Medical School, Tooting, London SW] 7 ORE, UK. Summary In vivo '9F-NMR spectroscopy has been used to study the pharmacokinetics of the experimental antifolate drug CB3988 (C2-desamino-C2-methyl-N'0-propargyl-2'trifluoromethyl-5,8-dideazafolic acid) in mice and rats. NMR results have been compared to those obtained by HPLC and the effect of the inclusion of the CF3 group evaluated by comparing the pharmacokinetics of CB3988 and ICI 198583 (C2-desamino-C2-methyl- N'?-propargyl-5,8-dideazafolic acid) in rats. In mice, following the administration of CB3988 (500 mg kg-' i.v.), drug could be detected in both the upper and the lower abdomen. […] Signal detected in the lower abdomen reached maximum intensity 60-90 min after treatment. […] In the preclinical setting such measurements are usually performed using radio- chemicals and either autoradiographic or quantitative tissue distribution studies (Siddik & Newell, 1988). […]

Acute toxicity in mice = format: in vivo; conditions: 500 mg kg-1 i.v.
Excerpt: as §2

[8] = In vivo 19F-NMR spectroscopy of CB3988 in rats; conditions: 100 mg kg-1 i.v.
Excerpt: as §1

[9] = Plasma pharmacokinetics and biliary/urinary excretion in rats by HPLC; format: in vivo; conditions: 100 mg kg-1 i.v., CB3988 vs ICI 198583
Excerpt: as §2

[10] = design: method as in Newell et al., 1988; conditions: experimental systems; ref Newell et al., 1988; cited from earlier work
[11] = upper abdomen, cannulated and bile duct-intact

C#CCN(Cc1ccc2nc(N)[nH]c(=O)c2c1)c1ccc(C(=O)N[C@@H](CCC(=O)O)C(=O)O)cc1 [CB3717, N10-propargyl-5,8-dideazafolic acid]
urinary excretion and persistence in kidney [1]; 1986: delayed urinary excretion and drug still present in the kidney weeks after administration | nephrotoxicity ([2]; ref Alison et al., 1985, Newell et al.): nephrotoxic | hepatotoxicity ([2]; ref Newell et al.): hepatotoxic | aqueous solubility [3]: poor solubility | nephrotoxicity [4]: nephrotoxic

C#CCN(Cc1ccc2nc(C)[nH]c(=O)c2c1)c1ccc(C(=O)N[C@@H](CCC(=O)O)C(=O)O)c(C(F)(F)F)c1 [CB3988, C2-desamino-C2-methyl-N10-propargyl-2'trifluoromethyl-5,8-dideazafolic acid]
reduction of inhibitory activity towards thymidylate synthase in comparison to ICI 198583 (thymidylate synthase): 7 fold | time by which urinary excretion is essentially complete ([5]; NMR signal in bladder): ≤ 1 h | time at which NMR signal in the lower abdomen reached maximum intensity ([5]; lower abdomen): 60 to 90 min | metabolites (additional peaks) in NMR spectrum ([5]; upper abdomen): No clear evidence of the presence of additional peaks | time at which NMR signal from the upper abdomen reached maximum intensity ([5]; upper abdomen): 10 to 40 min | half-life ([5]; mouse, upper abdomen (in vivo NMR signal), iv, analysis period 40-120 min, mean ± s.d. of three mice, read-out: half life for the decline of NMR signal from the upper abdomen (overall mean)): 28 min | CB3988 concentration in bile and urine, molar [6]: 40 to 60 mM | CB3988 concentration in liver and small intestines ([6]; 30 and 60 min): > 1 mg g-1 wet weight | CB3988 concentration in bile and urine (gall bladder and urinary bladder) ([6]; 30 and 60 min, HPLC): 20 to 30 mg/mL | Conc. large intestine ([6]; 60 min, large intestine (ND)): < 0.02 mg g-1 wet weight | reduction of cytotoxicity in comparison to ICI 198583 ([7]; ref A.L. Jackman, unpublished results): 14 fold | acute toxicity (Acute toxicity in rats): no acute toxicity | acute toxicity (Acute toxicity in mice): no acute toxicity | metabolites in NMR spectra ([8]; intact and cannulated bile ducts): no metabolites being detected | time by which NMR signal reached the limit of detection ([8]; upper abdomen, bile duct cannulated): 15 to 20 min | time after bolus dose at which NMR signal was detected [8, 11]: up to 2 min | time by which NMR signal intensity reached a maximum value [8, 11]: ≤ 10 min | half-life ([8]; rat, iv, upper abdomen, three bile duct cannulated rats, read-out: half-life for the decline in the NMR signal, individual rats): 5.6 min | alpha phase half life, fold faster than ICI 198583 [9]: 2 fold

C#CCN(Cc1ccc2nc(C)[nH]c(=O)c2c1)c1ccc(C(=O)N[C@@H](CCC(=O)O)C(=O)O)cc1 [ICI 198583, C2-desamino-C2-methyl-N10-propargyl-5,8-dideazafolic acid]
retention in liver and kidney [1]; 1988: not retained in either the liver or the kidney | potency in cytotoxicity studies relative to CB3717 ([7]; ref Hughes et al., 1988, Jackman et al.): markedly more potent than CB3717 | aqueous solubility [3]: greatly enhanced aqueous solubility compared to CB3717 | acute liver and kidney toxicity [10]: devoid of acute liver and kidney toxicity
